Measured values taken from US20260007131A1, “HERBICIDAL COMPOSITION CONTAINING DIFLUOROBUTENOIC ACID AMIDE COMPOUND” (ISHIHARA SANGYO KAISHA, LTD., priority 2022, published 2026).

How the values were obtained:
Assay type in all cases: in vivo
[1] = test system: barnyardgrass (Echinochloa crus-galli); assay: Herbicidal effect on barnyardgrass (foliar treatment)
Method: (§1) Upland soil was put into a 1/300,000 hectare (ha) pot, seeds of barnyardgrass (Echinochloa crus-galli) were sown, and about 1.5 cm of cover soil was put. The barnyardgrass was grown for 10 days in a greenhouse until it reached a predetermined leaf stage. […] The spray solution was sprayed over the grown barnyardgrass with a small sprayer for foliar treatment.
(§2) Upland soil was put into a 1/300,000 hectare (ha) pot, seeds of barnyardgrass (Echinochloa crus-galli), crabgrass (Digitaria sanguinalis), green foxtail (Setaria viridis), wild oat (Avena fatua), Italian ryegrass (Lolium multiflorum), foxtail shortawn (Alopecurus aequalis), annual bluegrass (Poa annua), redroot pigweed (Amaranthus retroflexus), common chickweed (Stellaria media) common lambsquarters (Chenopodium album) and black nightshade (Solanum nigrum) were sown, and about 1.5 cm of cover soil was put. The plants were grown for 10 days in a greenhouse until they reached a predetermined leaf stage.

[2] = test system: green foxtail (Setaria viridis); assay: Herbicidal effect on green foxtail (foliar treatment)
Method: as §1, §2

wild oat (Avena fatua) = assay: Herbicidal effect on wild oat (foliar treatment)
Method: as §1, §2

[3] = test system: Italian ryegrass (Lolium multiflorum); assay: Herbicidal effect on Italian ryegrass (foliar treatment)
Method: as §1, §2

[4] = test system: foxtail shortawn (Alopecurus aequalis); assay: Herbicidal effect on foxtail shortawn (foliar treatment)
Method: as §1, §2

[5] = test system: common chickweed (Stellaria media); assay: Herbicidal effect on common chickweed (foliar treatment)
Method: as §1, §2

[6] = test system: black nightshade (Solanum nigrum); assay: Herbicidal effect on black nightshade (foliar treatment)
Method: as §1, §2

[7] = test system: barnyardgrass (Echinochloa crus-galli); assay: Herbicidal effect on barnyardgrass (soil treatment)
From the text: (§3) Upland soil was put into a 1/300,000 hectare (ha) pot, seeds of barnyardgrass (Echinochloa crus-galli) were sown, and about 1.5 cm of cover soil was put. […] On the next day after sowing, the spray solution was sprayed with a small sprayer for soil treatment.
(§4) Upland soil was put into a 1/300,000 hectare (ha) pot, seeds of barnyardgrass (Echinochloa crus-galli), crabgrass (Digitaria sanguinalis), green foxtail (Setaria viridis), Italian ryegrass (Lolium multiflorum), redroot pigweed (Amaranthus retroflexus) and common chickweed (Stellaria media) were sown, and about 1.5 cm of cover soil was put.

[8] = test system: crabgrass (Digitaria sanguinalis); assay: Herbicidal effect on crabgrass (soil treatment)
From the text: as §3, §4

[9] = test system: green foxtail (Setaria viridis); assay: Herbicidal effect on green foxtail (soil treatment)
From the text: as §3, §4

[10] = test system: Italian ryegrass (Lolium multiflorum); assay: Herbicidal effect on Italian ryegrass (soil treatment); details: Comparative Test 2, Italian ryegrass, read-out: Growth inhibition rate
From the text: as §3, §4

[11] = test system: redroot pigweed (Amaranthus retroflexus); assay: Herbicidal effect on redroot pigweed (soil treatment)
From the text: as §3, §4

[12] = test system: mexican burningbush (Kochia scoparia); assay: Herbicidal effect on mexican burningbush (soil treatment); details: Bassia scoparia, 14th day, read-out: growth inhibition rate
From the text: Upland soil was put into a 1/300,000 hectare (ha) pot, seeds of barnyardgrass (Echinochloa crus-galli) were sown, and about 1.5 cm of cover soil was put. The Invention Compound was weighed to achieve a predetermined active ingredient amount, dissolved in acetone (containing 0.5 vol % of surfactant (TritonX-100: manufactured by Kishida Chemical Co., Ltd.)) or dimethyl sulfoxide and diluted with water (containing 0.1 vol % of agricultural spreader (Surfactant WK: manufactured by MARUWA Biochemical Co., Ltd.)) in an amount corresponding to 1,000 liter per hectare, to prepare a spray solution. On the next day after sowing, the spray solution was sprayed with a small sprayer for soil treatment.
On the 14th day after the soil treatment, the state of growth of each plant was visually observed.
To confirm herbicidal effect on mexican burningbush (Kochia scoparia), the same test as in Test Example 2 (2-1) (soil treatment) was conducted using the following compounds.

[13] = test system: common chickweed (Stellaria media); assay: Comparative Test 2: herbicidal effect on common chickweed (soil treatment); details: Comparative Test 2, common chickweed, read-out: Growth inhibition rate
From the text: Upland soil was put into a 1/300,000 hectare (ha) pot, seeds of barnyardgrass (Echinochloa crus-galli), crabgrass (Digitaria sanguinalis), green foxtail (Setaria viridis), Italian ryegrass (Lolium multiflorum), redroot pigweed (Amaranthus retroflexus) and common chickweed (Stellaria media) were sown, and about 1.5 cm of cover soil was put. The Invention Compound (Aa-1-1, Aa-9-2) or the compound 4b described in Patent Document 1 was weighed to achieve a predetermined active ingredient dose, dissolved in acetone (containing 0.5 vol % of surfactant (TritonX-100: manufactured by Kishida Chemical Co., Ltd.)) or dimethyl sulfoxide and diluted with water (containing 0.1 vol % of agricultural spreader (Surfactant WK: manufactured by MARUWA Biochemical Co., Ltd.) in an amount corresponding to 1,000 liter per hectare, to prepare each spray solution. On the next day after sowing, each spray solution was sprayed with a small sprayer for soil treatment. On the 14th day after the soil treatment, the state of growth of each plant was visually observed, and the herbicidal effect was evaluated in accordance with the growth inhibition rate (%) of from 0 (equivalent to the non-treated area) to 100 (complete kill).

[14] = barnyardgrass, 250 g/ha, 14th day, read-out: growth inhibition rate
[15] = green foxtail, 250 g/ha, 14th day, read-out: growth inhibition rate

COC(=O)[C@H]1C[C@@H](NC(=O)C(F)(F)/C=C/c2cc(F)cc(F)c2)C1 [Aa-1-1]
70 to 90%: inhibition at 500 g/ha ([6]; Comparative Test 1, black nightshade, 500 g/ha, read-out: Growth inhibition rate)
≥ 70%: inhibition at 250 g/ha [1, 14] | inhibition at 250 g/ha [2, 15] | inhibition at 250 g/ha (wild oat (Avena fatua); wild oat, 250 g/ha, 14th day, read-out: growth inhibition rate) | inhibition at 250 g/ha ([3]; Italian ryegrass, 250 g/ha, 14th day, read-out: growth inhibition rate) | inhibition at 250 g/ha ([4]; foxtail shortawn, 250 g/ha, 14th day, read-out: growth inhibition rate) | inhibition at 250 g/ha ([5]; common chickweed, 250 g/ha, 14th day, read-out: growth inhibition rate) | inhibition at 250 g/ha ([6]; black nightshade, 250 g/ha, 14th day, read-out: growth inhibition rate) | inhibition at 250 g/ha [7, 14] | inhibition at 250 g/ha ([8]; crabgrass, 250 g/ha, 14th day, read-out: growth inhibition rate) | inhibition at 250 g/ha [9, 15] | inhibition at 250 g/ha ([11]; redroot pigweed, 250 g/ha, 14th day, read-out: growth inhibition rate) | inhibition at 250 g/ha [12]
≥ 90%: inhibition at 500 g/ha ([1]; Comparative Test 1, barnyardgrass, 500 g/ha, read-out: Growth inhibition rate) | inhibition at 1000 g/ha ([1]; Comparative Test 1, barnyardgrass, 1000 g/ha, read-out: Growth inhibition rate) | inhibition at 500 g/ha ([2]; Comparative Test 1, green foxtail, 500 g/ha, read-out: Growth inhibition rate) | inhibition at 1000 g/ha ([2]; Comparative Test 1, green foxtail, 1000 g/ha, read-out: Growth inhibition rate) | inhibition at 500 g/ha (wild oat (Avena fatua); Comparative Test 1, wild oat, 500 g/ha, read-out: Growth inhibition rate) | inhibition at 1000 g/ha (wild oat (Avena fatua); Comparative Test 1, wild oat, 1000 g/ha, read-out: Growth inhibition rate) | inhibition at 500 g/ha ([3]; Comparative Test 1, Italian ryegrass, 500 g/ha, read-out: Growth inhibition rate) | inhibition at 1000 g/ha ([3]; Comparative Test 1, Italian ryegrass, 1000 g/ha, read-out: Growth inhibition rate) | inhibition at 500 g/ha ([4]; Comparative Test 1, foxtail shortawn, 500 g/ha, read-out: Growth inhibition rate) | inhibition at 1000 g/ha ([4]; Comparative Test 1, foxtail shortawn, 1000 g/ha, read-out: Growth inhibition rate) | inhibition at 500 g/ha ([5]; Comparative Test 1, common chickweed, 500 g/ha, read-out: Growth inhibition rate) | inhibition at 1000 g/ha ([5]; Comparative Test 1, common chickweed, 1000 g/ha, read-out: Growth inhibition rate) | inhibition at 1000 g/ha ([6]; Comparative Test 1, black nightshade, 1000 g/ha, read-out: Growth inhibition rate) | inhibition at 500 g/ha ([7]; Comparative Test 2, barnyardgrass, 500 g/ha, read-out: Growth inhibition rate) | inhibition at 1000 g/ha ([7]; Comparative Test 2, barnyardgrass, 1000 g/ha, read-out: Growth inhibition rate) | inhibition at 500 g/ha ([8]; Comparative Test 2, crabgrass, 500 g/ha, read-out: Growth inhibition rate) | inhibition at 1000 g/ha ([8]; Comparative Test 2, crabgrass, 1000 g/ha, read-out: Growth inhibition rate) | inhibition at 500 g/ha ([9]; Comparative Test 2, green foxtail, 500 g/ha, read-out: Growth inhibition rate) | inhibition at 1000 g/ha ([9]; Comparative Test 2, green foxtail, 1000 g/ha, read-out: Growth inhibition rate) | inhibition at 500 g/ha ([10]; 500 g/ha) | inhibition at 1000 g/ha ([10]; 1000 g/ha) | inhibition at 500 g/ha ([11]; Comparative Test 2, redroot pigweed, 500 g/ha, read-out: Growth inhibition rate) | inhibition at 1000 g/ha ([11]; Comparative Test 2, redroot pigweed, 1000 g/ha, read-out: Growth inhibition rate) | inhibition at 500 g/ha ([13]; 500 g/ha) | inhibition at 1000 g/ha ([13]; 1000 g/ha)
